Assay: molar heat capacity at constant pressure
Conditions: 101.33 kPa, Glass, Small (less than 1 g) adiabatic calorimetry

CCOS(=O)(=O)[O-].CCn1cc[n+](C)c1 [1-ethyl-3-methylimidazolium ethyl sulfate]
Conditions | molar heat capacity at constant pressure [J/K/mol]
5 K | 1.02
7.21 K | 2.892
7.52 K | 3.232
7.89 K | 3.662
8.26 K | 4.116
8.64 K | 4.61
9.02 K | 5.113
9.4 K | 5.662
9.78 K | 6.226
10 K | 6.55
10.17 K | 6.81
10.66 K | 7.609
11.26 K | 8.587
11.87 K | 9.634
12.47 K | 10.71
13.09 K | 11.85
13.7 K | 13.01
14.32 K | 14.24
14.95 K | 15.52
15 K | 15.63
15.69 K | 17.06
16.54 K | 18.87
17.39 K | 20.71
18.24 K | 22.56
19.1 K | 24.43
19.96 K | 26.32
20 K | 26.45
21.16 K | 29.04
22.71 K | 32.61
24.26 K | 36.22
25 K | 37.93
25.81 K | 39.86
27.37 K | 43.43
28.95 K | 47.02
30 K | 49.4
30.54 K | 50.61
32.28 K | 54.42
33.12 K | 56.24
35 K | 60.18
35.01 K | 60.28
36.91 K | 64.15
38.82 K | 68
40 K | 70.37
40.72 K | 71.74
42.73 K | 75.61
44.84 K | 79.65
45 K | 79.98
46.95 K | 83.58
49.06 K | 87.43
50 K | 89
51.17 K | 91.07
53.29 K | 94.63
55.41 K | 98.01
57.53 K | 101.3
59.66 K | 104.5
60 K | 105.1
61.79 K | 107.7
63.92 K | 110.7
66.06 K | 113.7
68.21 K | 116.6
70 K | 119
70.35 K | 119.5
72.59 K | 122.4
74.94 K | 125.3
77.3 K | 128.3
79.66 K | 131.2
80 K | 131.5
80.4 K | 132.1
82.02 K | 133.9
82.22 K | 134.2
84.05 K | 136.2
84.39 K | 136.7
85.88 K | 138.3
87.71 K | 140.4
89.54 K | 142.4
90 K | 143
91.38 K | 144.4
93.22 K | 146.5
95.06 K | 148.5
96.91 K | 150.4
98.76 K | 152.4
100 K | 153.7
100.61 K | 154.3
102.46 K | 156.2
104.31 K | 158
106.16 K | 159.9
108.05 K | 161.9
109.91 K | 163.7

— the NIST ThermoML archive (doi:10.1016/j.tca.2015.01.022)
